Results from patent US7265155B2 (NBS Pharmaceuticals, Inc., priority 1996, dated 2007).
“Also recorded” adds a separate entry of the source.

What was measured:
[1] = in vivo; cited from earlier work
chronic spinalized rat [2] = assay: Spasticity scores elicited by a metal probe in chronic spinally transected rats; type: in vivo; details: 300 mg/kg i.p.
From the text: In these studies, male albino Holtzman-derived rats (Harlan Sprague-Dawley Laboratories) weighing 270-530 grams were used as subjects. The animals were housed independently and had continuous access to food and water throughout the experiments.
All procedures were reviewed and approved by the Institutional Animal Care and Use Committee. Animals were anesthetized using a mixture of isoflurane and oxygen at a flow rate of 4 liters/minute.
The rats were then placed in a stereotaxic frame and anesthesia was maintained. An incision was made so that the paraspinal muscles could be retracted and a laminectomy performed between T6-T9. A one- to two-millimeter portion of the spinal cord was removed by evacuation and replaced with Gel foam to reduce bleeding, after which the incision was closed in layers.
Following the transection, rats were placed in a room in which the ambient temperature was raised to about 80° F. with a space heater to maintain body temperature. On the following morning post-surgery, the hindquarters of the spinalized rats were bathed and their urine expressed manually by applying pressure to their bladders. Experiments were conducted between 21 and 28 days after surgery. For the first two weeks, these rats were given 0.25 ml of the antibiotic Sulfatrim Pediatric Suspension orally to prevent bladder infection.
Within approximately two weeks, all animals regained bladder control and were no longer given antibiotic treatment. Advokat, Brain Res. 684: 8 (1995). […]
Initial assessment of spasticity was performed by the subjective scoring method of rating the resulting spasticity response elicited with an innocuous stimulus, i.e., a metal probe, that was pressed against the lower abdomen at four specific sites. The spastic reaction was evaluated for each of the four trials using a scale ranging from zero (no spastic response in all four trials) to four (a maximum, tonic-clonic reaction elicited in all four trials). […] These raw or normalized scores were analyzed with a one-way repeated measures ANOVA.

chronic spinalized rat [3] = assay: Flexor reflex (EMG) in the chronic spinalized rat; type: in vivo; details: 300 mg/kg p.o.; 30, 60, 90 and 120 minutes post-administration
Experimental: With reference to FIG. 3, the polysynaptic flexor-reflex responses, to test stimuli which activate high-threshold afferents, were recorded as EMG activity from the ipsilateral hamstring muscle. Supramaximal electric shocks were applied to the hindpaw, and recording electrodes were placed in the biceps femoris semitendinosus muscle. Five sets of stimuli were made at each time point. The flexor reflex was recorded, in both the pre-drug and the post-drug periods, every 30 minutes once a stable baseline response was achieved. See Hao et al., Eur. J. Pharmacol. 191: 407 (1990).
Thus, the responses were determined in spinalized rats by observing the flexor-reflex response (FIG. 3) before treatment and at each of 30, 60, 90, and 120 minutes following administration of isovaleramide (300 mg/kg p.o.), baclofen (10 mg/kg s.c.) and vehicle (water, 12 ml/kg p.o.), respectively.
In FIG. 4, the responses from FIG. 3 and additional doses of isovaleramide and baclofen are converted to a total-area-under-the-curve format, covering the entire, two-hour measurement period. […] Between the drug-treated groups, no differences were found in total reduction of the flexor reflex over the two-hour period (pairwise multiple comparison, Student-Newman-Keuls method).

CC(C)CC(N)=O [Isovaleramide, isovaleramide]
anxiolytic properties [1]: clinically useful anxiolytic properties
overt behavioral toxicity or motor impairment (chronic spinalized rat [2]): No overt behavioral toxicity or motor impairment was observed
reduction of spasticity scores (chronic spinalized rat [2]; 15, 30, 60 and 120 minutes post-administration): 45-65%
spasticity scores by the next day (chronic spinalized rat [2]; 1440 minutes (24 hours)): essentially returned to baseline values
magnitude of the flexor reflex (chronic spinalized rat [3]): reduce the magnitude of the flexor-reflex responses, at all time points; also recorded: significant decrease in the magnitude of the flexor reflex, comparable to that observed with baclofen
